In patent US11752125B2, “Anti-neuroinflammatory and protective compounds in Achillea fragrantissima” (THE STATE OF ISRAEL MINISTRY OF AGRICULTURE & RURAL …, priority 2013, dated 2023):

Assays:
Format in all cases: cell-based, rat
[1] = test system: glutamate; test: Glutamate secretion from LPS-activated microglial cells; details: LPS 100 ng/mL, 20 h
Description: For glutamate measurements, 3.5×10^4 cells/well were plated on a 24-well tissue culture plate. After 24 h of incubation in DMEM containing 10% FBS, cells were stimulated with LPS (100 ng/mL) and treated with different concentrations of achillolide A. Conditioned media were collected twenty hours later, and were tested for glutamate levels using a colorimetric enzymatic assay kit (glutamate assay kit, BioVision, CA, USA) according to the manufacturer's instructions. 7. Measure the levels of glutamate using a colorimetric enzymatic assay kit (glutamate assay kit, BioVision, CA, USA) according to the manufacturer's instructions. Microglial cells were treated with the indicated concentrations of achillolide A, followed by stimulation with LPS (100 ng/mL). After 20 h, conditioned media were collected and tested for glutamate levels by a commercial kit. Values represent the means±SEM (n=4 for each treatment). ** p<0.01; *** p<0.001, compared to LPS-stimulated cells.

[2] = test system: COX-2; test: COX-2 transcripts in LPS-stimulated microglial cells (real-time PCR); details: 20 μg/mL; LPS 4.5 ng/mL, 5 h
Description: RNA was extracted by the RNeasy Plus Mini Kit (Qiagen, Hilden, Germany) according to the manufacturer's instructions. Genomic DNA was removed from the RNA samples by using 50 units of RNase-free DNaseI at 37° C. for 1 h. RNA ([…]) was converted to cDNA using the Thermo Scientific Verso cDNA kit (Thermo Fisher Scientific Inc) following the manufacturer's protocol. The cDNA was used for quantitative real-time PCR amplification with TaqMan chemistry (Applied Biosystems) using Rat MMP9, TNFα, IL1β, iNOS, COX2 pre-designed TaqMan Gene Expression Assay from Applied Biosystems (Rn00579162_m1, Rn00562055_m1, Rn00580432_m1, Rn00561646_m1, Rn01483828_m1, respectively). […] All results from three technical replicates were normalized relative to α-Tubulin (Rn01532518.g1) and GAPDH (Rn01775763.g1), respectively, and expressed as relative expression ratios calculated (relative quantity, RQ) using the comparative method and based on the data that were created by the ABI PRISM 7700 Sequence Detection System (using version 1.6 software).
Procedure 23. Measurement of IL-1Beta, TNFalpha, iNOS, COX-2 and MMP-9 Transcripts in LPS-Activated Microglial Cells by Quantitative Real-Time PCR Analysis. • 1. […]
Microglial cells were treated with 20 μg/mL of achillolide A, followed by stimulation with LPS (4.5 ng/mL). […] The results are expressed as percentages relative to LPS-stimulated cells. […]

[3] = test system: MMP-9; test: MMP-9 activity in LPS-activated microglial cells (gelatin zymography); details: LPS 4.5 ng/mL, 24 h
From the text: Determination of MMP Activities in Conditioned Media of Microglial Cells. MMP-9 activity was quantified by gelatin zymography.
1. Prepare a primary culture of microglial cells and plate cells as described in “Anti-neuroinflammatory effects of the extract of achillea fragrantissima” 2011. A. Elmann, S. Mordechay, H. Erlank, A. Telerman, M. Rindner, R. Ofir. BMC Complementary and Alternative Medicine. 11:98; 2. Treat cells with freshly diluted AcA of the invention; 3. Activate microglial cells with lipopolysaccharide (LPS, 4.5 nanograms/mL); 4. Measure the levels of MMP-9 by gel zymography as described in “Anti-neuroinflammatory effects of the extract of achillea fragrantissima” 2011. A. Elmann, S. Mordechay, H. Erlank, A. Telerman, M. Rindner, R. Ofir. BMC Complementary and Alternative Medicine. 11:98. 5. […]
Microglial cells were treated with the indicated concentrations of achillolide A, followed by stimulation with LPS (4.5 ng/mL). […] The levels of MMP-9 transcripts were measured by quantitative real-time PCR. The results from three technical replicates were normalized to β-actin and are expressed as relative quantity of MMP-9 transcripts in FIG. 23 B. The results are means±SD of one representative experiment out of three experiments. Cell viability was determined 24 h later by the crystal violet assay. […]

SMILES: C=C1CCC2=C(CO)C(=O)O[C@H]2/C=C(\C)[C@H](OC(C)=O)CC1=O [achillolide A]
- inhibition of the LPS-induced levels of secreted glutamate [1]: 80%
- effect on LPS-induced COX-2 transcript levels [2]: significantly inhibited
- effect on LPS-induced MMP-9 activity [3]: markedly inhibited
